The values below come from patent US5306721A (priority 1990, dated 1994).

Where a name gives a salt, the structure may show the parent alone. Read-outs that look alike come from different tables or passages of the source. Bounds are passed on as bounds.

For data set [1] the following is noted: levamisole after oral administration to man; inosine benzoate about 50 mg/kg/day; cited from earlier work.
The test system of a further data set is immune system. As to conditions: cited from earlier work.
In data set [2] the test system is effector T lymphocyte activity (contact hypersensitivity). Briefly: Percutaneous test for detecting delayed contact hypersensitivity (contact dermatitis) after DNFB immunization. As to conditions: Cavia porcellus, 24 h, Control: 100, oral 2 mg/kg daily, day +1 to +6, read-out: Contact dermatitis, 24-hour reaction. The format is in vivo, guinea pig. The source says:
1.1 Percutaneous test for detecting contact hypersensitivity
The epicutaneous application of dinitrofluorobenzene (DNFB) led to the development of a delayed hypersensitivity in guinea pigs and mice, an immune status, which is linked to the clonal reproduction of antitrinitrophenyl (TNP)-specific T lymphocytes (TDTH -ly). If, after a latency period of at least 5 days, there is a renewed application of DNFB, lymphokines are released through the reaction with the TDTH -ly of this region of the skin and thus lead to a locally limited inflammatory reaction.
Seven days after the immunization with 1% DNFB, the sides of the experimental animals were depilated and tested by the application of one drop each of the 0.5%, 0.1%, 0.05, 0.025% and 0.01% DNFB solution. […] The test results are obtained from the severity and number of the positive skin reactions, and the stimulation index (SI) is obtained from the comparison of test animals and control animals.
The test substance is orally administered. A daily dose of 2 mg/kg of body weight, as an aqueous suspension, was administered daily by a stomach tube. Duration of treatment: 1 day+1 (one day after the immunization), up to +6. The control animals received only the lactose content of the composition.
The degree of sensitization in percent and the concentration of serum antibodies expressed as antibody titer difference is compared below to the respective control group (screening values).
A contact dermatitis value of 120 or more, i.e. corresponding to an at least 20% increase compared to the control, or of less than 80 are taken as proof of a stimulatory or suppressor effect, respectively. Antibody values of >+1 or <-1 illustrate the stimulatory or suppressor effect, respectively, of the substances on the humoral response.

Data set [3] relates to SE-specific rosette-forming cells (RFC). In words: Rosette test (SE-specific rosettes). The format is in vivo, mouse (inbred CBA strain). As to conditions: oral administration. As to the method: The testing of immunostimulatory effects was also conducted on the mouse (inbred CBA strain) by detection through the plaque test for detecting SE (sheep erythrocyte) -specific immunoglobulin M (IgM) and immunoglobulin G (IgG) PFC (plaque forming cells), and by the rosette test.
2.2 Rosette Test (SE-specific rosettes)
According to Burnet's Theory, lymphocytes carry immunoglobulin receptors on their surface. These receptors are directed against a particular antigen and are detectable by a reaction with the specific antigen. The determination of the number of rosette-forming cells (RFC) can serve as a measure of the strength of an incipient immune reaction and consequently also reproduce the effects of a suppression or stimulation of cell-proliferative processes.
Three days after the intravenous immunization with 2×10^5 SE in 0.2 ml physiological salt solution, the experimental animals were killed by hyperdistention, the spleen was removed and, after addition of Parker medium at pH 7.4, rubbed through Muller gauze. The work to recover the cell suspension was carried out in an ice-cooled water bath from about 0° C. to about 4° C. The determination of the cell density was carried out in a Neubauer counting chamber. Next, the cell count was adjusted to 1×10^7 nuclei-containing cell (NCC) per ml of medium, a count that was kept constant for all experimental formulations. Of this spleen cell suspension (1×10^7 NCC/ml), 0.9 ml were then mixed with 0.1 ml of a 5% washed SE suspension and incubated for 24 hours at 4° C. An NCC, which was surrounded by at least 4 erythrocytes and was identifiable, was rated as a rosette.

The subject of data set [4] is Vaccinia Lister. In words: microbe, parasite or virus in culture. The conditions noted are these: Orthopoxvirus vaccinia. The format is cell-based.
In the next data set the test system is Herpes simplex type 1. In words: Grading replication test on RH cell line, herpes simplex type 1. The format is cell-based, herpes simplex virus. The conditions noted are these: Human alphaherpesvirus 1, RH cells.
Data set [5] relates to Influenza A/WSN. Briefly: Grading replication test on RH cell line, influenza. The format is cell-based, influenza virus. The conditions noted are these: RH cells.
The subject of data set [6] is Vaccinia Lister. In words: microbe, parasite or virus in culture. The format is cell-based. As to conditions: Orthopoxvirus vaccinia, Fibroblast, in Gallus gallus.
Data set [7] has as its system Influenza A/WSN. Briefly: Grading replication test on chicken embryo fibroblasts, influenza. The conditions noted are these: Influenza A virus, Fibroblast. The format is cell-based.
Where [8] appears, read: read-out: Inhibition of virus yield.
Where [9] appears, read: read-out: Lowering the virus yield.
The mark [10] stands for this setting: 62.5 μmoles/l, read-out: Inhibition of virus yield.
Setting [11] is: 62.5 μmoles/l, read-out: Lowering the virus yield.
[12] abbreviates: 125 μmoles/l, read-out: Inhibition of virus yield.
[13] abbreviates: 125 μmoles/l, read-out: Lowering the virus yield.
The mark [14] stands for this setting: 250 μmoles/l, read-out: Inhibition of virus yield.
The mark [15] stands for this setting: 250 μmoles/l, read-out: Lowering the virus yield.

On to `c1ccc([C@H]2CN3CCSC3=N2)cc1` [levamisole hydrochloride], for which the side effects entry in data set [1] is “vomiting, nausea, leucopenia, and agranulocytosis”. Besides, in the data set on immune system, the immunological effect result is reported as “predominantly immunorestorative effect”.
For the compound `O=C(OC[C@H]1O[C@@H](n2cnc3c(O)ncnc32)[C@H](O)[C@@H]1O)c1ccccc1` [inosine benzoate], the side effects result in [1] was “vomiting, hyperuricemia and an increase in hematocrits”. Besides, in the data set with immune system, the immunological effect result is listed as “primarily an immunostimulating effect”.
In general, inhibition refers to the share of the control response that was lost under treatment. On to `COc1cc2[nH]c(=O)n(CCCS)c(=O)c2cc1OC` [Example 2, 3-(3-mercapto-prop-1-yl)-6,7-dimethoxy-quinazoline-2,4(1H,3H)-dione], for which the response vs control in vivo at 2 mg/kg in data set [2] was 180%. For the same compound, the “production of SE-specific rosette-forming cells” value in data set [3] is reported as “significant production of SE-specific rosette-forming cells”. Also, the inhibition at 31.25 µM with Vaccinia Lister [4] (setting [8]) came out at 99.8%; with Herpes simplex type 1 (31.25 μmoles/l, read-out: Inhibition of virus yield), 100%; in the data set with Vaccinia Lister [6] (setting [8]) it was 99.9%. Besides, the inhibition at 62.5 µM was greater than 100% in the data set on Vaccinia Lister [4] (setting [8]), greater than 100% in the data set on Herpes simplex type 1 (setting [10]), 99.9% in the data set with Vaccinia Lister [6] (setting [8]) and 99% in the data set with Influenza A/WSN [7] (setting [10]). Further, the inhibition at 125 µM was greater than 100% with Vaccinia Lister [4] (setting [8]); greater than 100% with Herpes simplex type 1 (setting [12]); 99% with Influenza A/WSN [5] (Influenza A virus, WSN, 125 μmoles/l, read-out: Inhibition of virus yield); greater than 100% in the data set with Vaccinia Lister [6] (setting [8]); greater than 100% in the data set with Influenza A/WSN [7] (setting [12]). The inhibition at 250 µM was greater than 100% with Vaccinia Lister [4] (setting [8]); greater than 100% in the data set on Herpes simplex type 1 (setting [14]); 100% in the data set on Influenza A/WSN [5] (Influenza A virus, WSN, 250 μmoles/l, read-out: Inhibition of virus yield); greater than 100% in the data set with Vaccinia Lister [6] (setting [8]); greater than 100% in the data set with Influenza A/WSN [7] (setting [14]). Further, the log reduction at 31.25 µM came to 2.84 with Vaccinia Lister [4] (setting [9]); 3.67 in the data set with Herpes simplex type 1 (31.25 μmoles/l, read-out: Lowering the virus yield); 0 with Influenza A/WSN [5] (Influenza A virus, WSN, 31.25 μmoles/l, read-out: Lowering the virus yield); 3 in the data set on Vaccinia Lister [6] (setting [9]). For the same compound, the log reduction at 62.5 µM amounted to 5 with Vaccinia Lister [4] (setting [9]); 5 in the data set on Herpes simplex type 1 (setting [11]); 0.5 with Influenza A/WSN [5] (Influenza A virus, WSN, 62.5 μmoles/l, read-out: Lowering the virus yield); 3.5 in the data set with Vaccinia Lister [6] (setting [9]); 2 with Influenza A/WSN [7] (setting [11]). The log reduction at 125 µM in the data set with Vaccinia Lister [4] (setting [9]) stood at 5; in the data set with Herpes simplex type 1 (setting [13]), 6.5; in the data set with Influenza A/WSN [5] (Influenza A virus, WSN, 125 μmoles/l, read-out: Lowering the virus yield), 2; with Vaccinia Lister [6] (setting [9]), 5; in the data set with Influenza A/WSN [7] (setting [13]), 5. Besides, the log reduction at 250 µM in the data set on Vaccinia Lister [4] (setting [9]) turned out to be 5; in the data set with Herpes simplex type 1 (setting [15]) it was 6.5; with Influenza A/WSN [5] (Influenza A virus, WSN, 250 μmoles/l, read-out: Lowering the virus yield), 6.17; with Vaccinia Lister [6] (setting [9]), 5; in the data set on Influenza A/WSN [7] (setting [15]), 5. Also, the “Inhibition of virus yield” value in the data set on Influenza A/WSN [5] (62.5 μmoles/l, n.s. = not significant) was “n.s”.
Regarding `CC(C)(N1CC1C#N)N1CC1C(N)=O` (centres unmarked) [azimexone], the side effects entry in [1] was “headaches, vomiting and a decrease in haemoglobin (Hb) and erythrocytes”.
